The source of these data is US7041687B2, “Indazole compounds useful as protein kinase inhibitors” (Vertex Pharmaceuticals Incorporated, priority 2002, dated 2006).

Format in all cases: biochemical
The target in experiment [1] is AKT-3 (Homo sapiens, UniProt Q9Y243). The experiment can be described thus: AKT-3 inhibition assay (standard coupled enzyme assay). Particulars: 170 μM ATP, 200 μM peptide, 45 nM AKT, 30° C.
Description: Assays were carried out in a mixture of 100 mM HEPES 7.5, 10 mM MgCl2, 25 mM NaCl, 1 mM DTT and 3% DMSO. Final substrate concentrations in the assay were 170 μM ATP (Sigma Chemicals) and 200 μM peptide (RPRAATF, American Peptide, Sunnyvale, Calif.). Assays were carried out at 30° C. and 45 nM AKT. Final concentrations of the components of the coupled enzyme system were 2.5 mM phosphoenolpyruvate, 300 μM NADH, 30 μg/ML pyruvate kinase and 10 μg/ml lactate dehydrogenase.
An assay stock buffer solution was prepared containing all of the reagents listed above, with the exception of AKT, DTT, and the test compound of interest. 55 μl of the stock solution was placed in a 96 well plate followed by addition of 2 μl of 1 mM DMSO stock containing the test compound (final compound concentration 30 μM). The plate was pre-incubated for about 10 minutes at 30° C. and the reaction initiated by addition of 10 μl of enzyme (final concentration 45 nM) and 1 mM DTF. Rates of reaction were obtained using a Molecular Devices SpectraMax Plus plate reader over a 15 minute read time at 30° C.
Experiment [2] deals with T1, PDK-1 (Homo sapiens, UniProt O15530).
T1 sequence (O15530 1-556): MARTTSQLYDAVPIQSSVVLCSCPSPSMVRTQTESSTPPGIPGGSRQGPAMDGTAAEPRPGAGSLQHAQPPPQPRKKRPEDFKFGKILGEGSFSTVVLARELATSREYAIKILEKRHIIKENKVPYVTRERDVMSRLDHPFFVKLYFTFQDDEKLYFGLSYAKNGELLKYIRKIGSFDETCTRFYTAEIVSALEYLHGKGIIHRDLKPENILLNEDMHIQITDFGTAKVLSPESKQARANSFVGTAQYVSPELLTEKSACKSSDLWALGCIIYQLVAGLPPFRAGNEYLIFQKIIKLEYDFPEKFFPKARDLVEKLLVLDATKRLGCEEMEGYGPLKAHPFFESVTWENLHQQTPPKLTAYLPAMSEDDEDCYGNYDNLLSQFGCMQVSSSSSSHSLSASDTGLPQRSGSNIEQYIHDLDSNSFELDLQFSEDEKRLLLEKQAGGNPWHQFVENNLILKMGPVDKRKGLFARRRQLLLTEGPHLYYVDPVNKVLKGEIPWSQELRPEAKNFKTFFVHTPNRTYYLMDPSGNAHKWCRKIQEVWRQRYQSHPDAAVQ
Description: PDK-1 inhibition assay (radioactive-phosphate incorporation). Particulars: 40 μM ATP, 65 μM PDKtide, 25 nM PDK-1, 30° C.

Experiment [3] deals with PKA (Homo sapiens, UniProt P17612). Description: PKA inhibition assay (standard coupled enzyme assay). Particulars: 50 μM ATP, 80 μM Kemptide, 18 nM PKA, 30° C. In outline:
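Coupled PK/LDH assay (NADH read) with 18 nM PKA, 50 μM ATP and 80 μM Kemptide in 100 mM HEPES 7.5, 10 mM MgCl2, 3% DMSO at 30 °C. Compound dilutions (typically from 5 μM final) preincubated 10 min before ATP start; initial rates over 15 min gave IC50 and Ki by non-linear regression.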

pKi: −log10 of the molar value.

A word on the pKi: it is the Ki on a negative log10 scale, so that one unit is a factor of ten.

AKT-3, sequence (Q9Y243 whole entry): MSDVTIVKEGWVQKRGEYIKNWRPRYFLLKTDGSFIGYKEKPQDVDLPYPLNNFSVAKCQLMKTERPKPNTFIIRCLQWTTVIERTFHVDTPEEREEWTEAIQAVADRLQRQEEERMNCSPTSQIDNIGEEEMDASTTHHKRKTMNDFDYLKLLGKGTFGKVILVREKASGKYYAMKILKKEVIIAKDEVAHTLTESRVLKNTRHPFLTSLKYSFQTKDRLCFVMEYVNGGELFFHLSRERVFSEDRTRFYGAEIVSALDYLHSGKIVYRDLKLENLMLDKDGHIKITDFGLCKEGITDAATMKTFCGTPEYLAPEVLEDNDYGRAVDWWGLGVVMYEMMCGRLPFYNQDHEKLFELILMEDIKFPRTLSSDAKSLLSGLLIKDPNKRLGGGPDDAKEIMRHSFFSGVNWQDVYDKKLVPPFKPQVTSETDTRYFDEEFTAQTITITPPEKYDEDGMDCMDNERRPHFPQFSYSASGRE

As to `C#Cc1n[nH]c2ccc(NC(=O)C(CCN)c3ccc(Cl)c(Cl)c3)cc12` (stereo not drawn) [Compound I-124], the negative logarithm of the Ki (pKi) in experiment [1] was more than 6.00; in experiment [2], 5.52 to 6.00; in experiment [3], more than 6.00.

For `NCCC(C(=O)Nc1ccc2[nH]nc(NC(=O)c3ccc(-c4ccccc4)cc3)c2c1)c1ccc(Cl)c(Cl)c1` (stereo not drawn) [Compound I-172], the negative-log Ki (pKi) in experiment [1], in experiment [2] and in experiment [3] was more than 6.00 each time.

On to `NCCC(C(=O)Nc1cc(Br)c2[nH]nc(Cl)c2c1)c1ccc(Cl)c(Cl)c1` (stereo not drawn) [Compound I-145], for which the negative-log Ki (pKi) in experiment [1] is more than 6.00; in experiment [2] it was less than 5.52; in experiment [3], more than 6.00.

Consider `NCCC(C(=O)Nc1ccc2[nH]nc(NC(=O)c3ccncc3)c2c1)c1ccc(Cl)c(Cl)c1` (stereo not drawn) [Compound I-193], for which the pKi in experiment [1], in experiment [2] and in experiment [3] was more than 6.00 in each case.

In the case of `NCCC(C(=O)Nc1ccc2[nH]nc(NC(=O)c3cccc(CN)c3)c2c1)c1ccc(Cl)c(Cl)c1` (stereo not drawn) [Compound I-197], the pKi in experiment [1], in experiment [2] and in experiment [3] was more than 6.00 each time.

Turning to `CC(=O)Nc1n[nH]c2ccc(NC(=O)C(CCN)c3ccc(Cl)c(Cl)c3)cc12` (stereo not drawn) [Compound I-140], the pKi is more than 6.00 in experiment [1], 5.52 to 6.00 in experiment [2] and more than 6.00 in experiment [3].

For `NCCC(C(=O)Nc1ccc2[nH]nc(NC(=O)c3ccccn3)c2c1)c1ccc(Cl)c(Cl)c1` (stereo not drawn) [Compound I-195], the negative logarithm of the Ki (pKi) in experiment [1], in experiment [2] and in experiment [3] was more than 6.00 in each case.

As for `NCCC(C(=O)Nc1ccc2[nH]nc(NC(=O)c3ccc(Br)cc3)c2c1)c1ccc(Cl)c(Cl)c1` (stereo not drawn) [Compound I-189], the pKi in experiment [1], in experiment [2] and in experiment [3] was more than 6.00 throughout.

On to `NCCC(C(=O)Nc1ccc2[nH]ncc2c1)c1ccccc1` (stereo not drawn) [Compound I-98], for which the pKi in experiment [1] was more than 6.00; in experiment [2], 5.52 to 6.00; in experiment [3], more than 6.00.

On to `Cc1cccc(C(CCN)C(=O)Nc2ccc3[nH]nc(C)c3c2)c1` (stereo not drawn) [Compound I-131], for which the pKi is more than 6.00 in experiment [1], less than 5.52 in experiment [2] and more than 6.00 in experiment [3].

`Cc1n[nH]c2ccc(NC(=O)C(CCN)c3ccc(Cl)c(Cl)c3F)cc12` (stereo not drawn) [Compound I-136]: the pKi in experiment [1], in experiment [2] and in experiment [3] was more than 6.00 each time.

Turning to `N#Cc1ccc(C(=O)Nc2n[nH]c3ccc(NC(=O)C(CCN)c4ccc(Cl)c(Cl)c4)cc23)cc1` (stereo not drawn) [Compound I-174], the pKi in experiment [1], in experiment [2] and in experiment [3] was more than 6.00 throughout.

Regarding `NCC[C@@H](C(=O)Nc1ccc2[nH]nc(NC(=O)c3cccc(Cl)c3)c2c1)c1cccc(Cl)c1F` [Compound I-177], the values for the pKi in experiment [1], in experiment [2] and in experiment [3] were more than 6.00, 5.52 to 6.00 and more than 6.00, respectively.

Consider `CNc1ccc(C(=O)Nc2n[nH]c3ccc(NC(=O)C(CCN)c4ccc(Cl)c(Cl)c4)cc23)cc1` (stereo not drawn) [Compound I-206], for which the negative logarithm of the Ki (pKi) in experiment [1], in experiment [2] and in experiment [3] was more than 6.00 each time.

As to `NCCC(C(=O)Nc1ccc2[nH]ncc2c1)c1c(F)ccc(Cl)c1F` (stereo not drawn) [Compound I-109], the pKi in experiment [1], in experiment [2] and in experiment [3] was more than 6.00 each time.

As to `NCCC(C(=O)Nc1ccc2[nH]nc(Nc3ccc(Cl)cc3)c2c1)c1ccc(Cl)c(Cl)c1` (stereo not drawn) [Compound I-163], the pKi was more than 6.00 in experiment [1], less than 5.52 in experiment [2] and more than 6.00 in experiment [3].

As to `CN(C)CC(C(=O)Nc1ccc2[nH]ncc2c1)c1ccc(Cl)c(Cl)c1` (stereo not drawn) [Compound I-227], the pKi in experiment [1] was more than 6.00; in experiment [2], less than 5.52; in experiment [3], more than 6.00.

Turning to `NCCC(C(=O)Nc1ccc2[nH]nc(Nc3cccc(OCc4ccccc4)c3)c2c1)c1ccc(Cl)c(Cl)c1` (stereo not drawn) [Compound I-161], the pKi is more than 6.00 in experiment [1], less than 5.52 in experiment [2] and more than 6.00 in experiment [3].

For `NCCC(C(=O)Nc1ccc2[nH]nc(NC(=O)c3cc(C(F)(F)F)cc(C(F)(F)F)c3)c2c1)c1ccc(Cl)c(Cl)c1` (stereo not drawn) [Compound I-202], the results for the pKi in experiment [1], in experiment [2] and in experiment [3] were more than 6.00, less than 5.52 and 5.30 to 6.00, respectively.

Take `NCCC(C(=O)Nc1ccc2[nH]ncc2c1)c1cccc(N)c1` (stereo not drawn) [Compound I-107]: the pKi is 5.00 to 6.00 in experiment [1], 5.52 to 6.00 in experiment [2] and more than 6.00 in experiment [3].

Consider `NCCC(C(=O)Nc1ccc2[nH]ncc2c1)c1cccc(Cl)c1` (stereo not drawn) [Compound I-100], for which the pKi in experiment [1], in experiment [2] and in experiment [3] was more than 6.00 throughout.

For `COc1ccc(C(=O)Nc2n[nH]c3ccc(NC(=O)C(CCN)c4ccc(Cl)c(Cl)c4)cc23)cc1` (stereo not drawn) [Compound I-168], the pKi in experiment [1], in experiment [2] and in experiment [3] was more than 6.00 in each case.

Regarding `Cc1n[nH]c2ccc(NC(=O)C(CCN)c3ccc(Cl)c(Cl)c3)cc12` (stereo not drawn) [Compound I-117], the pKi in experiment [1], in experiment [2] and in experiment [3] was more than 6.00 in each case.

Regarding `NCC(C(=O)Nc1ccc2[nH]nc(-c3ccccc3)c2c1)c1ccc(Cl)c(Cl)c1` (stereo not drawn) [Compound I-231], the pKi in experiment [1], in experiment [2] and in experiment [3] was more than 6.00 in each case.

For the compound `NCCC(C(=O)Nc1ccc2[nH]nc(NC(=O)c3ccc(Cl)c(Cl)c3)c2c1)c1ccc(Cl)c(Cl)c1` (stereo not drawn) [Compound I-183], the pKi is more than 6.00 in experiment [1], less than 5.52 in experiment [2] and more than 6.00 in experiment [3].

As for `CSc1cccc(C(CCN)C(=O)Nc2ccc3[nH]ncc3c2)c1` (stereo not drawn) [Compound I-108], the pKi in experiment [1] was more than 6.00; in experiment [2], 5.52 to 6.00; in experiment [3], more than 6.00.

In the case of `NCCC(C(=O)Nc1ccc2[nH]nc(NC(=O)c3cccc(Br)c3)c2c1)c1ccc(Cl)c(Cl)c1` (stereo not drawn) [Compound I-186], the pKi is more than 6.00 in experiment [1], 5.52 to 6.00 in experiment [2] and more than 6.00 in experiment [3].

Turning to `COc1ccccc1C(CCN)C(=O)Nc1ccc2[nH]ncc2c1` (stereo not drawn) [Compound I-113], the pKi in experiment [1] was 5.00 to 6.00; in experiment [2], less than 5.52; in experiment [3] it was more than 6.00.

In the case of `NCCC(C(=O)Nc1ccc2[nH]nc(NC(=O)c3cccc(C(F)(F)F)c3)c2c1)c1ccc(Cl)c(Cl)c1` (stereo not drawn) [Compound I-200], the pKi in experiment [1] is more than 6.00; in experiment [2], less than 5.52; in experiment [3], more than 6.00.

`NCCC(C(=O)Nc1ccc2[nH]ncc2c1)c1cc(C(F)(F)F)cc(C(F)(F)F)c1` (stereo not drawn) [Compound I-105]: the pKi in experiment [1] was more than 6.00; in experiment [2], less than 5.52; in experiment [3], more than 6.00.

Take `Cc1cc(NC(=O)C(CCN)c2ccc(Cl)c(Cl)c2)cc2cn[nH]c12` (stereo not drawn) [Compound I-147]: the results for the pKi in experiment [1], in experiment [2] and in experiment [3] were more than 6.00, 5.52 to 6.00 and more than 6.00, respectively.

In the case of `NCCC(C(=O)Nc1ccc2[nH]nc(Nc3cccc(Cl)c3)c2c1)c1ccc(Cl)c(Cl)c1` (stereo not drawn) [Compound I-162], the pKi in experiment [1], in experiment [2] and in experiment [3] was more than 6.00 in each case.

`NCCC(C(=O)Nc1ccc2[nH]nc(NC(=O)c3cccnc3)c2c1)c1ccc(Cl)c(Cl)c1` (stereo not drawn) [Compound I-194]: the pKi in experiment [1], in experiment [2] and in experiment [3] was more than 6.00 in each case.

Regarding `NCCC(C(=O)Nc1ccc2[nH]nc(NC3CCCCC3)c2c1)c1ccc(Cl)c(Cl)c1` (stereo not drawn) [Compound I-159], the results for the negative logarithm of the Ki (pKi) in experiment [1], in experiment [2] and in experiment [3] were 5.00 to 6.00, less than 5.52 and more than 6.00, respectively.

As for `CCc1n[nH]c2ccc(NC(=O)C(CCN)c3ccc(Cl)c(Cl)c3)cc12` (stereo not drawn) [Compound I-118], the pKi in experiment [1] was more than 6.00; in experiment [2], 5.52 to 6.00; in experiment [3] it was more than 6.00.

As for `COC(=O)c1ccc(-c2n[nH]c3ccc(NC(=O)C(CCN)c4ccccc4)cc23)cc1` (stereo not drawn) [Compound I-235], the pKi is 5.00 to 6.00 in experiment [1], more than 6.00 in experiment [2] and more than 6.00 in experiment [3].

As for `NCCC(C(=O)Nc1ccc2[nH]nc(NC(=O)c3ccccc3)c2c1)c1ccc(Cl)c(Cl)c1` (stereo not drawn) [Compound I-141], the pKi in experiment [1], in experiment [2] and in experiment [3] was more than 6.00 in each case.

Regarding `NCCC(C(=O)Nc1ccc2[nH]nc(NCc3ccccc3)c2c1)c1ccc(Cl)c(Cl)c1` (stereo not drawn) [Compound I-158], the pKi is 5.00 to 6.00 in experiment [1], 5.52 to 6.00 in experiment [2] and more than 6.00 in experiment [3].

For `CCNc1ccc(C(=O)Nc2n[nH]c3ccc(NC(=O)C(CCN)c4ccc(Cl)c(Cl)c4)cc23)cc1` (stereo not drawn) [Compound I-207], the pKi in experiment [1], in experiment [2] and in experiment [3] was more than 6.00 throughout.

For the compound `NCCC(C(=O)Nc1ccc2[nH]nc(-c3ccccc3)c2c1)c1ccccc1` (stereo not drawn) [Compound I-1028], the pKi in experiment [1] is 5.00 to 6.00; in experiment [2] it was more than 6.00; in experiment [3] it was more than 6.00.
